From patent US5206435A, “4-amino-2-cyclopentene-1-methanol” (priority 1988, dated 1993)
Entries after “also recorded” stand apart in the source; their conditions may differ.

Assays:
[1] = tested on: HBV; test: activity against HBV infections (general statement); parameters: species or system hepatitis B virus
[2] = tested on: HIV; test: anti-HIV activity in MT4 cells; assay type: cell-based; details: Human immunodeficiency virus 1, average of 10 determinations
Experimental: (1S,4R)-cis-4-[2-amino-6-(cyclopropylamino)-9H-purin-9-yl]-2-cyclopentene-1-methanol was tested for anti-HIV activity in MT4 cells according to the method described by Averett, D. R., J. Virol.

[3] = penetration of the blood-brain barrier upon administration; assay type: in vivo
[4] = tested on: bone marrow progenitor cells; test: toxicity against bone marrow progenitor cells; assay type: cell-based; details: compared with 3'-azido-3'-deoxythymidine (zidovudine)
[5] = tested on: HIV; test: activity against HIV infections (general statement)
[6] = tested on: HBV; test: anti-HBV activity in the human HBV producer cell line of HepG2, 2.2.15; assay type: cell-based, hepatitis B virus; details: at 100 μM; HepG2, 2.2.15 cells
Experimental: The human HBV producer cell line of HepG2,2.2.15, described and characterised by Sells et al., PNAS 84: 1005, 1987 and J.Virol.
To test compounds for anti-HBV activity, monolayer cultures were treated with the test compound: 50-200 μM for ten days. Supernatant media containing extracellular virion DNA (Dane particles) were harvested on days three, six and ten, treated with proteinase K (1 mg/mL) and sodium dodecyl sulfate (1%), and incubated at 50° C. for one hour. DNA was extracted with equal volumes of phenol followed by chloroform and then precipitated by ammonium acetate and propanol. The DNA precipitate was dissolved and collected on nitrocellulose using the procedure of Schleicher and Schuell (S&S, 10 Optical Ave., Keene, N.H. 03431, Publication #700, 1987), and treated as described by Southern, J.Mol.Biol., 98, 503, 1975. […] After precipitation by ammonium acetate and propanol, the intracellular DNA precipitate was dissolved, cut by restriction endonuclease, Hind III, applied to agarose gel and then treated as described by Southern to determine the quantity of replicative intermediate forms. The antiviral effect of the drug was determined by measuring at least a 100-fold reduction of the amount of Dane particles extruded into the culture medium and a similar decrease in the intracellular replicative intermediates.

IC50 [2] [µM] | Compound | activity against HBV infections [1] | blood-brain barrier penetration [3] | levels of the compounds or active metabolites in the central nervous system [3] | toxicity against bone marrow progenitor cells [4] | activity against HIV infections [5] | anti-HBV activity [6]
4 ± 1.4 | Nc1nc(NC2CC2)c2ncn([C@H]3C=C[C@@H](CO)C3)c2n1 [Compound 1, (1S,4R)-cis-4-[2-amino-6-(cyclopropylamino)-9H-purin-9-yl]-2-cyclopentene-1-methanol] | especially potent activity; also recorded: exceptionally potent activity | capable of penetrating the blood-brain barrier | high levels | significantly lower toxicity | especially potent activity; also recorded: exceptionally potent activity | 
 | CN(c1nc(N)nc2c1ncn2[C@H]1C=C[C@@H](CO)C1)C1CC1 [Compound 3, (1S,4R)-cis-4-[2-amino-6-(N-cyclopropyl-N-methylamino)-9H-purin-9-yl]-2-cyclopentene-1-methanol] | especially potent activity | capable of penetrating the blood-brain barrier | high levels |  | especially potent activity | potent anti-HBV activity
